Measured values: patent US10118892B2, “Compounds and their synthesis” (UCL BUSINESS PLC, priority 2012, dated 2018)

Assays:
[1] = molecular target: T1, P-glycoprotein at the blood-brain barrier (Mus musculus, UniProt P21447); assay: Biodistribution with P-glycoprotein activity inhibited by concomitant tariquidar (TQD); format: in vivo, Balb/C or FVB mice; conditions: mice, with and without TQD (FIG. 15)
T1 construct: investigated in vivo (Balb/C or FVB mice) by biodistribution studies and/or metabolite analysis; tissue Charles River UK; host or cells: living Balb/C or FVB mice; blood-brain barrier / brain
Procedure: A series of radiolabelled tracers was prepared using the reported chemistry and investigated in vivo (Balb/C or FVB mice) by biodistribution studies and/or metabolite analysis. Examples in FIGS. 7-10 highlight the versatility of the reported chemistry that allows for tracers with a variety of backbone structures and side chains. By deliberately modifying chemical moieties the tracer can be fine-tuned towards up-take in tissues of interest, e.g. brain, heart or lungs. FIGS. 11-15 show the results of the in vivo investigation of a potential pro-drug tracer that was developed to monitor the efflux pump P-glycoprotein at the blood-brain barrier. […]
(§1) The respective radiotracer (0.5-1 MBq formulated in a saline solution containing 5% ethanol) was administered intravenously into the tail vein. […] The organs of interest (blood, colon, stomach, spleen, kidneys, liver, heart, lungs, tail, femur, skull, and brain) were sampled, weighed, and the radioactivity content was measured by automated gamma counting (Cobra Multi Gamma Model 5010-Packard, UK). Results were normalised to the radioactivity found in 1% of the injected dose per gram bodyweight. All experiments were performed in duplicates or triplicates and analysed using Microsoft Office Excel 2007.
Brains were homogenised in saline (0.5 ml) and ethanol (0.5 ml). […] The flow rate was 1 ml/min and the UV absorbance detector was set at 254 nm. […]

[2] = Biodistribution studies: blood and brain uptake of radiotracer over time; format: in vivo, Balb/C or FVB mice; conditions: mice
Procedure: A series of radiolabelled tracers was prepared using the reported chemistry and investigated in vivo (Balb/C or FVB mice) by biodistribution studies and/or metabolite analysis. Examples in FIGS. 7-10 highlight the versatility of the reported chemistry that allows for tracers with a variety of backbone structures and side chains. By deliberately modifying chemical moieties the tracer can be fine-tuned towards up-take in tissues of interest, e.g. brain, heart or lungs. FIGS. 11-15 show the results of the in vivo investigation of a potential pro-drug tracer that was developed to monitor the efflux pump P-glycoprotein at the blood-brain barrier.
Female Balb/C mice and FVB mice were obtained from Charles River UK. When used, they were eight to eleven weeks old and weighing approximately 20 g. […]
as §1

T1 sequence (P21447 whole entry): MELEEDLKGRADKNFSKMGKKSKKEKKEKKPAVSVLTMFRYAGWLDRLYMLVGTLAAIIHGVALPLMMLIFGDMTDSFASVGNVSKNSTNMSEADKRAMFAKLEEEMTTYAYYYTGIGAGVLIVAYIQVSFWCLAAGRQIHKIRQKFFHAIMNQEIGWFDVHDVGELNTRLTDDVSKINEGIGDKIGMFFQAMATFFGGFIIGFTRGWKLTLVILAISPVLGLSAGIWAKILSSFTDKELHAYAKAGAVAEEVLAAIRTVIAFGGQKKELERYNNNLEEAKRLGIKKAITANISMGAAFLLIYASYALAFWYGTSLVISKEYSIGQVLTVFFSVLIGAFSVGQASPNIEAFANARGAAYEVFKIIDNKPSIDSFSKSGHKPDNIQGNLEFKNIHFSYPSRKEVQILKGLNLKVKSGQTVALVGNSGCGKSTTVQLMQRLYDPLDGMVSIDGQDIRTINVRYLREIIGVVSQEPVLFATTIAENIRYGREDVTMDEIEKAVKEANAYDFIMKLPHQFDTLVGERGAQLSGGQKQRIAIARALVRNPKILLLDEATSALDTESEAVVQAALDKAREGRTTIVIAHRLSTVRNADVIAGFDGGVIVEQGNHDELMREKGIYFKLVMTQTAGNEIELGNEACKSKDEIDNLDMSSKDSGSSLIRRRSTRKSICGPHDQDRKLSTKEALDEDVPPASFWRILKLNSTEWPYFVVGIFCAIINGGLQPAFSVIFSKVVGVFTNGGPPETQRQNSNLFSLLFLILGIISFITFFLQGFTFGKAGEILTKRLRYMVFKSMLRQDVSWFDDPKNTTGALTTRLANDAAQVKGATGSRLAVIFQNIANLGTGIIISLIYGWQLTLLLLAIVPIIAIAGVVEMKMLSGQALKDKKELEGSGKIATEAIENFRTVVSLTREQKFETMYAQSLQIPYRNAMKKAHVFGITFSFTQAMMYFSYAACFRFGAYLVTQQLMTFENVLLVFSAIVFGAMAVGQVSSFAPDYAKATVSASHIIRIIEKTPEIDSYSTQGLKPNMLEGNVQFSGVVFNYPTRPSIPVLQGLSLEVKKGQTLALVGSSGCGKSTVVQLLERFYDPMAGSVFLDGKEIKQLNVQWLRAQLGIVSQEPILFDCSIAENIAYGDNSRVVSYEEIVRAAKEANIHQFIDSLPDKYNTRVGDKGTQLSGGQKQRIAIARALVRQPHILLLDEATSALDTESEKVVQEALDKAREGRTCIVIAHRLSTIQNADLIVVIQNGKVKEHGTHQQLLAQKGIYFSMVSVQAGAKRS

Question: For `OCCCCN1CCC(=C(c2ccccc2)c2ccc(F)cc2)CC1` [Compound [^18F]6], which “wash-out of tracer from the brain by P-glycoprotein” value [1] is on record?
Answer: consistently washed out of the brain by P-glycoprotein

Question: What about the brain uptake ([2]; intravenous into tail vein, uptake over time (FIG. 15)) of the same compound?
Answer: high brain uptake

Question: What about the “brain to blood ratio” value ([2]; intravenous, FIG. 15, suitable for nuclear imaging) of the same compound?
Answer: good brain to blood ratio
